Laboratory results reported in US10517889B2, “Modulators of SMAD7 expression” (Ionis Pharmaceuticals, Inc., priority 2017, dated 2019).
Strand notation (5' to 3'): a small letter for the sugar, then the base; units joined by * are phosphorothioate-linked, units joined directly phosphodiester-linked; [ ] holds rarer units or linkages, { } end groups; capitals alone tell only the bases. k = constrained ethyl (cEt); [5mC] = 5-methylcytosine; d = 2'-deoxy (DNA)

Key:
human SMAD7 mRNA [1] = assay: Dose-dependent inhibition of human SMAD7 mRNA expression in Hep3B cells (Example 3, Study 1 and 2); assay type: cell-based; conditions: electroporation; for % inhibition of SMAD7 mRNA expression: approximately 16 hours; for IC50: Study 2 (740-20000 nM)
In short: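 Hep3B cells, 20,000 per well, electroporated with antisense oligonucleotide at 0.31, 1.25, 5.00 or 20.00 μM (first series) or 0.74, 2.22, 6.67 or 20.00 μM (second series). After ~16 h, SMAD7 mRNA measured by RT-qPCR (RTS5062), normalised to RIBOGREEN total RNA. Percent inhibition vs untreated cells; IC50 derived.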

human SMAD7 mRNA [2] = assay: Antisense inhibition of human SMAD7 mRNA expression in Hep3B cells by 3-10-3 cEt gapmers, 10,000 nM, electroporation (Example 2); assay type: cell-based; conditions: approximately 24 hours
In short: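 Percent inhibition of SMAD7 mRNA, relative to untreated cells, after ~24 h exposure of electroporated Hep3B cells to 10,000 nM cEt gapmer; levels by qRT-PCR, corrected for total RNA.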

[3] = 740 nM, Study 2, relative to untreated control cells
[4] = Hep3B cells, electroporation with 10,000 nM antisense oligonucleotide, SMAD7 mRNA by RT-PCR (RTS5062), relative to untreated control cells
[5] = Hep3B cells, electroporation with 10,000 nM antisense oligonucleotide, primer probe set RTS5062, relative to untreated control cells
[6] = Hep3B cells, electroporation with 10,000 nM antisense oligonucleotide, RTS5062, percent inhibition of SMAD7 mRNA relative to untreated control cells

Substance	% inhibition of SMAD7 mRNA expression (human SMAD7 mRNA [1]; [3]) [%]	% inhibition of SMAD7 mRNA expression (human SMAD7 mRNA [1]; 2220 nM, Study 2) [%]	% inhibition of SMAD7 mRNA expression (human SMAD7 mRNA [1]; 6670.0 nM, Study 2) [%]	% inhibition of SMAD7 mRNA expression (human SMAD7 mRNA [1]; 20000.0 nM, Study 2) [%]	IC50 (human SMAD7 mRNA [1]) [µM]	% Inhibition (human SMAD7 mRNA [2]; [4]) [%]	% inhibition of SMAD7 mRNA expression (human SMAD7 mRNA [2]; [5]) [%]	% inhibition of SMAD7 mRNA expression (human SMAD7 mRNA [2]; Hep3B cells, electroporation, 10,000 nM antisense oligonucleotide, RTS5062, relative to untreated control cells) [%]	% Inhibition (human SMAD7 mRNA [2]; [6]) [%]	% Inhibition (human SMAD7 mRNA [2]; Hep3B cells, 10,000 nM antisense oligonucleotide, electroporation, RT-PCR primer probe set RTS5062, relative to untreated control cells) [%]	% Inhibition (human SMAD7 mRNA [2]; SMAD7 mRNA, Hep3B cells, 10,000 nM antisense oligonucleotide, electroporation, primer probe set RTS5062, relative to untreated control cells) [%]
799904 (antisense kA*k[5mC]*kT*d[5mC]*dA*dG*dA*dG*d[5mC]*dA*dG*d[5mC]*dT*k[5mC]*kT*k[5mC]) [compound 799904]	3	9	23	62	8	61	–	–	–	–	–
799964 (antisense k[5mC]*k[5mC]*k[5mC]*d[5mC]*dT*dT*dA*dG*d[5mC]*dG*d[5mC]*dA*dT*kT*k[5mC]*kT) [compound 799964]	4	15	46	61	> 20	55	–	–	–	–	–
798696 (antisense kT*k[5mC]*k[5mC]*d[5mC]*d[5mC]*d[5mC]*dT*dG*d[5mC]*dG*d[5mC]*d[5mC]*d[5mC]*kT*k[5mC]*k[5mC]) [compound 798696]	0	33	58	66	< 0.7	82	–	–	–	–	–
799366 (antisense kT*k[5mC]*kT*d[5mC]*d[5mC]*dG*dA*dG*dT*dT*dA*dT*d[5mC]*k[5mC]*k[5mC]*k[5mC]) [compound 799366]	18	39	64	76	8	–	70	–	–	–	–
799718 (antisense k[5mC]*kT*kG*d[5mC]*dT*dA*dG*dG*dG*dA*dT*dA*d[5mC]*kT*kG*kA) [compound 799718]	23	52	66	72	4	–	–	65	–	–	–
830207 (kA*kG*kG*dT*dG*dA*d[5mC]*dT*d[5mC]*dA*dT*d[5mC]*dA*kG*kG*k[5mC]; antisense) [compound 830207]	49	74	85	93	1	80	–	–	–	–	–
799318 (antisense kG*kT*kG*dG*dA*dT*dT*dT*dG*dA*dA*dA*dA*kG*kG*kG) [compound 799318]	12	40	70	75	11	–	–	–	58	–	–
799322 (antisense kG*kG*kA*dG*dG*dG*dT*dA*dT*dG*d[5mC]*dA*d[5mC]*kA*k[5mC]*kT) [compound 799322]	89	90	96	96	2	–	83	–	–	–	–
798823 (kA*k[5mC]*kA*dG*dT*dA*dG*dA*dG*d[5mC]*d[5mC]*dT*d[5mC]*k[5mC]*k[5mC]*k[5mC]; antisense) [compound 798823]	27	27	63	70	> 20	–	–	–	–	74	–
830163 (antisense k[5mC]*kA*kA*d[5mC]*dT*dG*dA*dA*dG*dG*dT*dG*dA*k[5mC]*k[5mC]*k[5mC]) [compound 830163]	33	49	73	84	2	60	–	–	–	–	–
799781 (kG*kT*k[5mC]*dA*dA*dT*dA*d[5mC]*dA*dT*dA*dT*dT*kT*kG*k[5mC]; antisense) [compound 799781]	23	75	72	92	> 20	–	–	–	66	–	–
799312 (antisense k[5mC]*kA*kT*d[5mC]*dT*dT*dT*dA*dA*dG*d[5mC]*dA*d[5mC]*kG*k[5mC]*kT) [compound 799312]	23	46	49	69	4	–	–	–	66	–	–
799711 (antisense kG*kG*kT*d[5mC]*dA*dA*dA*d[5mC]*dT*dT*dG*dT*dG*kG*kT*kA) [compound 799711]	36	47	51	54	5	–	–	–	60	–	–
799668 (antisense kG*kA*k[5mC]*dA*dG*dA*dT*dG*d[5mC]*d[5mC]*dA*dG*d[5mC]*kA*kA*kG) [compound 799668]	15	17	39	72	1	–	–	–	75	–	–
799743 (antisense k[5mC]*kT*kG*dG*dA*dG*dT*dT*dA*dT*dT*d[5mC]*dT*k[5mC]*kA*kA) [compound 799743]	0	43	44	64	5	–	–	–	51	–	–
799067 (antisense kG*kG*kA*dT*dG*dA*dA*dA*dA*dT*dA*dA*dT*kT*kG*kG) [compound 799067]	5	55	63	78	9	–	74	–	–	–	–
830067 (kG*kA*kA*dA*dT*dG*dG*dT*dG*d[5mC]*dT*d[5mC]*dT*kG*k[5mC]*k[5mC]; antisense) [compound 830067]	23	59	80	88	10	63	–	–	–	–	–
798687 (antisense kG*kG*k[5mC]*dG*dA*dG*dG*dA*dG*dG*d[5mC]*dG*dA*kG*kG*kA) [compound 798687]	27	42	60	61	7	–	64	–	–	–	–
799663 (antisense kG*k[5mC]*kA*d[5mC]*dA*dG*d[5mC]*d[5mC]*dA*dA*dG*dA*dG*kA*kT*kG) [compound 799663]	19	43	61	89	> 20	–	–	–	57	–	–
799572 (kA*k[5mC]*k[5mC]*dA*dT*d[5mC]*dT*dA*dA*d[5mC]*dA*dA*d[5mC]*kA*kT*k[5mC]; antisense) [compound 799572]	0	35	62	66	1	–	–	–	79	–	55
799967 (kG*kA*k[5mC]*dG*dA*dT*dG*dA*dA*dT*d[5mC]*d[5mC]*dT*kG*kG*k[5mC]; antisense) [compound 799967]	0	0	0	20	9	72	–	–	–	–	–
799412 (antisense kT*kT*k[5mC]*dT*dT*dA*d[5mC]*dA*d[5mC]*dA*dG*d[5mC]*dA*kG*k[5mC]*kG) [compound 799412]	35	51	67	65	4	60	–	–	–	–	–
799486 (antisense k[5mC]*kA*kT*dA*dA*dT*dG*dA*d[5mC]*dT*dT*dA*dT*k[5mC]*k[5mC]*kA) [compound 799486]	20	17	57	88	11	52	–	–	–	–	–
